These are literature values, as cited in patent US6369078B1, “Solenopsin derivatives and analogues as fire ant suppressants” (priority 1999, dated 2002).

One series relates to fire ants. The following applies: stomach insecticide combined with bait.
The conditions of series [1]: as much as 6000 units over a shorter time period.
Series [2] deals with blood and tissue- and fluid-feeding parasites.

Turning to `ClC1(Cl)C2(Cl)C3(Cl)C4(Cl)C(Cl)(Cl)C5(Cl)C3(Cl)C1(Cl)C5(Cl)C24Cl` (stereo not shown) [Mirex], in the series on fire ants, the “effectiveness against fire ants” value is “more than 95%”.
For the compound `CCCCCCCCCCC[C@H]1CCC[C@H](C)N1` (relative stereo) [Solenopsin A, trans-2-methyl 6-n-undecylpiperidine], in series [1], the ill effects result was “did not cause any ill effects”. In addition, the “units equivalent to 250 units of the whole body extracts” value in series [2] (synthetic version against whole body extract) is on record as 1500 units. Besides, in series [2] (synthetically produced, oral), the “elimination of blood and tissue- and fluid-feeding parasites” value is listed as “complete elimination”.
